In patent US11878975B2, “Substituted indole compounds useful as TLR inhibitors” (BRISTOL-MYERS SQUIBB COMPANY, priority 2017, dated 2024):

How the values were obtained:
Format in all cases: cell-based
[1] = molecular target: T1, human TLR8 (Homo sapiens, UniProt Q9NR97); experiment: TLR8 inhibition reporter assay (HEK-Blue cells, SEAP reporter, R848 stimulation); conditions: HEK-Blue cells overexpressing human TLR8, SEAP reporter, R848 15.9 μM
T1 construct: host or cells: HEK-Blue cells
T1 sequence (Q9NR97 27-1041): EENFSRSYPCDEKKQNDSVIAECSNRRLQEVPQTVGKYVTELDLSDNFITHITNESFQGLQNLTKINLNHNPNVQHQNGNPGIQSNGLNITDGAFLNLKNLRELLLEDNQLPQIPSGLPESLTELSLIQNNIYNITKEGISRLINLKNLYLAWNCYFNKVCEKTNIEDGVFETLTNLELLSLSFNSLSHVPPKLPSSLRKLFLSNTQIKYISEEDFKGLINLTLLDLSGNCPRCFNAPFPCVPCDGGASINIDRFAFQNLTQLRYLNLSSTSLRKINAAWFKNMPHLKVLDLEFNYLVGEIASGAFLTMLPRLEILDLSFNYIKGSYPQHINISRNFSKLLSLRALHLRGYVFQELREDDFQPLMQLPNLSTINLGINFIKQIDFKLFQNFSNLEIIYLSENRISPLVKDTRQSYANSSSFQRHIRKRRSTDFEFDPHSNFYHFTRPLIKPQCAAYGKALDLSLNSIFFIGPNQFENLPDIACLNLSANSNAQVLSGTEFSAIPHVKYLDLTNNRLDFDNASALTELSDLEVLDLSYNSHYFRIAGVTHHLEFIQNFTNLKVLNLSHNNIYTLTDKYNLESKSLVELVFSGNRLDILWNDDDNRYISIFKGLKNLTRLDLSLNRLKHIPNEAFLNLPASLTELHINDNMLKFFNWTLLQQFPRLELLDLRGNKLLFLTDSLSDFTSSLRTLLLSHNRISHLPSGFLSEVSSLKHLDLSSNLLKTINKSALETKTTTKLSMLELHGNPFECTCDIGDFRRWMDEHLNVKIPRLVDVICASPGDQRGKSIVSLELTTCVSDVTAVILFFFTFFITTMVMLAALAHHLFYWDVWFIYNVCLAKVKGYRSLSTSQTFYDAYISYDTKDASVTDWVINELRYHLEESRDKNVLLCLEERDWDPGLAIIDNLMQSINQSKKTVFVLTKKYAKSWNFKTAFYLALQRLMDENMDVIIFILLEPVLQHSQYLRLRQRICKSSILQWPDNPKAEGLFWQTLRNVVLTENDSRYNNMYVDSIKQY
Procedure, shortened: (§1)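 HEK-Blue cells with NF-κB/AP-1-driven SEAP reporter, pre-treated 30 min at room temperature with compound (0.05 nM-50 μM). Stimulants: gardiquimod 7.5 μM (TLR7), R848 15.9 μM (TLR8) or ODN2006 5 nM (TLR9). SEAP measured after 22 h at 37° C.; percent inhibition versus agonist-plus-DMSO and known-inhibitor wells.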

[2] = molecular target: T2, human TLR9 (Homo sapiens, UniProt Q9NR96); experiment: TLR9 inhibition reporter assay (HEK-Blue cells, SEAP reporter, ODN2006 stimulation); conditions: HEK-Blue cells overexpressing human TLR9, SEAP reporter, ODN2006 5 nM
T2 construct: host or cells: HEK-Blue cells
T2 sequence (Q9NR96 26-1032): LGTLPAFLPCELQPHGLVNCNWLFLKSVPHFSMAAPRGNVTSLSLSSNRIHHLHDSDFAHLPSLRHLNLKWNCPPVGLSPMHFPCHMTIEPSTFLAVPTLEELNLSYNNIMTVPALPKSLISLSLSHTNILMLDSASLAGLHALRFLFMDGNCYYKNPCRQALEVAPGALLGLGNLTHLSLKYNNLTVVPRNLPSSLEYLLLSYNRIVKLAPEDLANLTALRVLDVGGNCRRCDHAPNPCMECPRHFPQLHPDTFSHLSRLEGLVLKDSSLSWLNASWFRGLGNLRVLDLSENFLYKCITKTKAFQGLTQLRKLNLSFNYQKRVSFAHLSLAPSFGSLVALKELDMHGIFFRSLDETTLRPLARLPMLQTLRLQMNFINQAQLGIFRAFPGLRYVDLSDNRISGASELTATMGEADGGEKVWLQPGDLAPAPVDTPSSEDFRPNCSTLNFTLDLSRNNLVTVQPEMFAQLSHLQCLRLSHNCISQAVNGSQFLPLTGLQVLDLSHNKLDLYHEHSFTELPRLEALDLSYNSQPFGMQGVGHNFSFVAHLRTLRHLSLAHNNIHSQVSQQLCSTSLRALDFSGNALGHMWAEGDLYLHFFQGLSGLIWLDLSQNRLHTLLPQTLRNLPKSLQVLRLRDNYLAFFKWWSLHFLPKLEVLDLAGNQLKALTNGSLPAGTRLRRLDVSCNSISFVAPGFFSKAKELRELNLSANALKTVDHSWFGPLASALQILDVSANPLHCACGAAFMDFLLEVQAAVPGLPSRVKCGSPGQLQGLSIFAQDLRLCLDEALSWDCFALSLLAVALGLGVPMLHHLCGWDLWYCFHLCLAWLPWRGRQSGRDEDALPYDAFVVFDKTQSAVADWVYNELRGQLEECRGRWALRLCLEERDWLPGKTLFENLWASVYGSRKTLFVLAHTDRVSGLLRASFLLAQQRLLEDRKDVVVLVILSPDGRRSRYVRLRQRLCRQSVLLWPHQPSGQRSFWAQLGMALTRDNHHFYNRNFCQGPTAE
Procedure, shortened: as §1

[3] = molecular target: T3, human TLR7 (Homo sapiens, UniProt Q9NYK1); experiment: TLR7 inhibition reporter assay (HEK-Blue cells, SEAP reporter, gardiquimod stimulation); conditions: HEK-Blue cells overexpressing human TLR7, SEAP reporter, gardiquimod 7.5 μM
T3 construct: host or cells: HEK-Blue cells
T3 sequence (Q9NYK1 27-1049): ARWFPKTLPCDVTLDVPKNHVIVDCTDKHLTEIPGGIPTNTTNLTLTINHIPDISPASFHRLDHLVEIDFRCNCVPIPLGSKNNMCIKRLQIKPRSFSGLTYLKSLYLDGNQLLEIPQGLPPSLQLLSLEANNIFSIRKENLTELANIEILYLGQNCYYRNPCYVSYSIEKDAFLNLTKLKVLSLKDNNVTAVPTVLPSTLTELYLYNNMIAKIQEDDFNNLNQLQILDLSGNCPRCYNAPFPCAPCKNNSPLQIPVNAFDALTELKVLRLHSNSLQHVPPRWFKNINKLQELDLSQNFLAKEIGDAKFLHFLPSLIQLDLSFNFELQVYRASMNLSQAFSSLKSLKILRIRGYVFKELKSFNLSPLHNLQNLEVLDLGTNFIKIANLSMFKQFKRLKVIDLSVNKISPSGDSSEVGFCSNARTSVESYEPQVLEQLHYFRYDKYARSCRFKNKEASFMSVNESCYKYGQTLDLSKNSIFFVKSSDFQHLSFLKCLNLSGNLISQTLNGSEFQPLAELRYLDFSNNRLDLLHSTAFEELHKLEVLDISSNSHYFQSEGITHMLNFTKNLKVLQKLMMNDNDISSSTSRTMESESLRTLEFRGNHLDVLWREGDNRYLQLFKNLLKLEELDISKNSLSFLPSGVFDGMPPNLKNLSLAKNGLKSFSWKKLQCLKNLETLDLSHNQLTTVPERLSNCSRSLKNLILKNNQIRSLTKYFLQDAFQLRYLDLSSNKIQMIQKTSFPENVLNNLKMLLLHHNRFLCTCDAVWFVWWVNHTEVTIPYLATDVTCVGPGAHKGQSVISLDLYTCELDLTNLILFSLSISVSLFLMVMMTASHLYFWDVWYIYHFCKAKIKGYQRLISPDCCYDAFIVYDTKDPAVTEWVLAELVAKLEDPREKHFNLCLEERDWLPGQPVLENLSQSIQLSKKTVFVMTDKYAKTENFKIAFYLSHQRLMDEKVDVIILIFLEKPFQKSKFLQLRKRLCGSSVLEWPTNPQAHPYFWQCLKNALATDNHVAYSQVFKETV
Procedure, shortened: as §1

Row | IC50 [1] [nM] | IC50 [2] [nM] | IC50 [3] [nM] | SMILES
1 | 2.6 | 4100 | 1 | Cc1c(-c2[nH]c3ccc(C4CCC(N(C)C)CC4)cc3c2C(C)C)cn2ncnc2c1C (stereo not drawn) [Example 111]
2 | 2 | 2320 | 6 | Cc1c(-c2[nH]c3ccc(C4CCC(NCC(C)(C)O)CC4)cc3c2C(C)C)cn2ncnc2c1C (stereo not drawn) [Example 112]
3 | 0.79 | 3250 | 1 | Cc1c(-c2[nH]c3ccc(C4CCC(N5CC6(COC6)C5)CC4)cc3c2C(C)C)cn2ncnc2c1C (stereo not drawn) [Example 113]
4 | 9.8 | 14100 | 0.7 | COc1cc(-c2[nH]c3ccc(C4CCC(NS(C)(=O)=O)CC4)cc3c2C(C)C)cn2ncnc12 (stereo not drawn) [Example 117, N-(4-(3-isopropyl-2-(8-methoxy-[1,2,4]triazolo[1,5-a]pyridin-6-yl)-1H-indol-5-yl)cyclohexyl)methanesulfonamide]
5 | 22 | 15600 | 2 | COc1cc(-c2[nH]c3ccc(C4CCC(NC(=O)CC(F)(F)F)CC4)cc3c2C(C)C)cn2ncnc12 (stereo not drawn) [Example 118, 3,3,3-trifluoro-N-(4-(3-isopropyl-2-(8-methoxy-[1,2,4]triazolo[1,5-a]pyridin-6-yl)-1H-indol-5-yl)cyclohexyl)propanamide]
6 | 7.2 | 976 | 0.95 | Cc1cc(-c2[nH]c3ccc(C4CCC(NC(=O)CN(C)C)CC4)cc3c2C(C)C)cc(C)n1 (stereo not drawn) [Example 119]
7 | 21 | 323 | 4 | Cc1cc(-c2[nH]c3ccc(C4CCC(NC(=O)CN(C)C)CC4)cc3c2C(C)C)cc(C)n1 (stereo not drawn) [Example 120]
8 | 2.6 | 7150 | 0.41 | Cc1cc(-c2[nH]c3ccc(C4CCC(NC(=O)CN(C)C)CC4)cc3c2C(C)C)cn2ncnc12 (stereo not drawn) [Example 121]
9 | 2.4 | 8700 | 0.24 | COc1cc(-c2[nH]c3ccc(C4CCC(NC(=O)CN(C)C)CC4)cc3c2C(C)C)cn2ncnc12 (stereo not drawn) [Example 122]
10 | 1 | > 50000 | 0.52 | Cc1c(-c2[nH]c3ccc(C4CCC(NC(=O)CN(C)C)CC4)cc3c2C(C)C)cn2ncnc2c1C (stereo not drawn) [Example 123]
11 | 12 | 8180 | 9 | Cc1c(-c2[nH]c3ccc(C4CCC(NC(=O)CN(C)C)CC4)cc3c2C(C)C)cn2ncnc2c1C (stereo not drawn) [Example 124]
12 | 10 | 6980 | 11 | CCN(CC)CC(=O)NC1CCC(c2ccc3[nH]c(-c4cn5ncnc5c(C)c4C)c(C(C)C)c3c2)CC1 (stereo not drawn) [Example 125]
13 | 2.3 | > 50000 | 0.51 | CCN(CC)CC(=O)NC1CCC(c2ccc3[nH]c(-c4cn5ncnc5c(C)c4C)c(C(C)C)c3c2)CC1 (stereo not drawn) [Example 126]
14 | 3.2 | 3160 | 2 | COc1cc(-c2[nH]c3ccc(C4CCC(NC(=O)CN(C)C)CC4)cc3c2C(C)C)cn2ncnc12 (stereo not drawn) [Example 127]
15 | 1.4 | 2250 | 0.37 | CNCC(=O)NC1CCC(c2ccc3[nH]c(-c4cn5ncnc5c(C)c4C)c(C(C)C)c3c2)CC1 (stereo not drawn) [Example 128, N-(4-(2-(7,8-dimethyl-[1,2,4]triazolo[1,5-a]pyridin-6-yl)-3-isopropyl-1H-indol-5-yl)cyclohexyl)-2-(methylamino)acetamide]
16 | 1 | 2990 | 0.45 | CN[C@@H](C)C(=O)NC1CCC(c2ccc3[nH]c(-c4cn5ncnc5c(C)c4C)c(C(C)C)c3c2)CC1 (stereo partly drawn) [Example 131]
17 | 1.5 | 6040 | 0.44 | CCN(C)CC(=O)NC1CCC(c2ccc3[nH]c(-c4cc(OC)c5ncnn5c4)c(C(C)C)c3c2)CC1 (stereo not drawn) [Example 132, 2-(ethyl(methyl)amino)-N-(4-(3-isopropyl-2-(8-methoxy-[1,2,4]triazole [1,5-a]pyridin-6-yl)-1H-indol-5-yl)cyclohexyl)acetamide]
18 | 0.75 | 2020 | 0.28 | COc1cc(-c2[nH]c3ccc(C4CCC(NC(=O)CN5CCCC5)CC4)cc3c2C(C)C)cn2ncnc12 (stereo not drawn) [Example 133]
19 | 12 | 43800 | 2 | COc1cc(-c2[nH]c3ccc(C4CCC(NC(=O)CNC5(C)COC5)CC4)cc3c2C(C)C)cn2ncnc12 (stereo not drawn) [Example 135]
20 | 4.9 | 26600 | 2 | COc1cc(-c2[nH]c3ccc(C4CCC(NC(=O)CNC5COC5)CC4)cc3c2C(C)C)cn2ncnc12 (stereo not drawn) [Example 137]
21 | 2.5 | 4440 | 0.41 | COc1cc(-c2[nH]c3ccc(C4CCC(NC(=O)CN5CC6(COC6)C5)CC4)cc3c2C(C)C)cn2ncnc12 (stereo not drawn) [Example 138]
22 | 40 | > 50000 | 18 | COc1cc(-c2[nH]c3ccc(C4CCC(NC(=O)CNC5COC5)CC4)cc3c2C(C)C)cn2ncnc12 (stereo not drawn) [Example 139]
